Source: US20260258397A1, “REAGENTS AND SYSTEMS FOR […]” (priority 2023, published 2026)

How the values were obtained:
[1] = biological target: T1, PYR1^WIN-M (Arabidopsis thaliana, UniProt O49686, A160I/D26G/F159A/H60P/K59Q/N90S/Y23H); experiment: PYR1 ELISA-like plate assay, immobilized PYR1^WIN-M with biotinylated ΔN-HAB1^T+; format: binding; conditions: PYR1^WIN-M ELISA-like format
T1 construct: made in house; host or cells: E. coli
Description: PYR1 was immobilized overnight in clear plates, blocked with KPL milk diluent in buffer CBS ^17 (CBSM). All binding reactions were performed using CBSM. Detection was performed via binding a streptavidin-HRP conjugate to biotinylated ΔN-HAB1^T+ followed by incubation with a commercial TMB reagent. Lower limits of detection (LODs) were determined by linear regression of the response data in the low linear range using the formula LOD=3σy/m, where m is the slope of the response line and σy is the standard error of the y intercept using data combined from biological replicates.
Unconjugated 6×His-MBP-PYR1 variants were immobilized to Microlon clear plates (655081) using 100 μL of CBS without pH modification, at a protein concentration of 100 μg mL^−1, or 1.57 AM at 4° C. overnight. Wells assigned as no PYR controls received only CBS. Plates were sealed using Microseal B adhesive sealers (BioRad MSB-1001). […] The pellet was stored on ice until the blocked and washed plates were ready to receive the binding reactions. ΔN-HAB1^T+ was exchanged into CBSM with 1 mM DTT and 1 mM TCEP (CBSM++) using Zeba™ spin desalting columns (Thermo) were equilibrated with CBSM++. ΔN-HAB1^T+ was diluted to 10× the final binding reaction concentration and was immediately added to the pre-assembled assays in PCR plates, which were mixed by pipetting and transferred to the washed, blocked Microlon plates. […]

[2] = test system: PYR1 mutant receptors (ligand-dependent binding to HAB1); experiment: Yeast two-hybrid screens of PYR1 DSM and CB-S libraries for cannabinoid sensors

T1 sequence (O49686 whole entry Y23H/D26G/K59Q/H60P/N90S/F159A/A160I, other chains not shown): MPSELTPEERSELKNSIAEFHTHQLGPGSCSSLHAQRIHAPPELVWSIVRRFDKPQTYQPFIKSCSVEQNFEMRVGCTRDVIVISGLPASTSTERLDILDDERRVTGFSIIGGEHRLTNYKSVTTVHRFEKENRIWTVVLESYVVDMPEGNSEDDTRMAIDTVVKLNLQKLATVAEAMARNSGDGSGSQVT

Cc1c(C(=O)c2cccc3ccccc23)c2cccc3c2n1[C@H](CN1CCOCC1)CO3 [WIN 55,212-2]
average LOD from two biological replicates [1]: 0.21 ng/ml | affinity of improved sensors ([2]; CB-S2 library screened on 50 nM, 25 nM: JWH-015 PYR1 K59N/Y120H/F159L/A160G, JWH-016 V81I/Y120G/F159L/A160G, JWH-072 E4G/K59N/Y120H/F159L/A160G, WIN 55,212 E4G/Y23H/D26G/K59Q/F159A/A160I): low nM affinity | outcome of DSM library Y2H selection ([2]; DSM library selected on 30 μM ligand, hits for 'pM concentrations' as printed): double mutant hits
